Results from ChEMBL document CHEMBL4823244, “Synthesis of norisoboldine derivatives and bioactivity assay for inducing the generation of regulatory T cells” (Bioorg Med Chem Lett, 2021).
Calls of active or inactive are those of the source. The rule behind the calls is not given here.

Experiments:
EL4 = assay: Cytotoxicity against mouse EL4 cells assessed as effect on cell viability at 1 to 10 uM measured after 72 hrs by MTT assay; type: cell-based; conditions: el4, 72 h, dose 1-10 µM
T-cell [1] = assay: Induction of cell differentiation in anti-CD3/CD28 stimulated naive T-cells assessed as upregulation of Foxp3 expression at 0.2 mM measured after 72 hrs by Q-PCR analysis; type: functional, cell-based
T-cell [2] = assay: Induction of cell differentiation in anti-CD3/CD28 stimulated naive T-cells assessed as upregulation of CD4+ CD25+ cell frequency at 0.2 mM measured after 72 hrs by flow cytometry analysis; type: functional, cell-based
T-cell [3] = assay: Induction of cell differentiation in anti-CD3/CD28 stimulated naive T-cells assessed as upregulation of IL-10 mRNA expression at 0.2 mM measured after 72 hrs by Q-PCR analysis; type: functional, cell-based
T-cell [4] = assay: Induction of cell differentiation in anti-CD3/CD28 stimulated naive T-cells assessed as number of Treg cells at 0.2 mM measured after 72 hrs by flow cytometry analysis (reference value: 24 %); type: functional
T-cell [5] = assay: Induction of cell differentiation in anti-CD3/CD28 stimulated naive T-cells assessed as upregulation of Foxp3 mRNA expression at 1 uM measured after 72 hrs by Q-PCR analysis; type: functional, cell-based
T-cell [6] = assay: Induction of cell differentiation in anti-CD3/CD28 stimulated naive T-cells assessed as upregulation of CD4+ CD25+ cell frequency at 1 uM measured after 72 hrs by flow cytometry analysis; type: functional, cell-based
Mus musculus [7] = assay: Antiinflammatory activity in DSS-induced ulcerative colitis mouse model assessed as reduction in MPO activity at 28 to 56 mg/kg, po administered for 10 consecutive days; type: functional, organism-based; conditions: dose 28-56 mg/kg, time 10.0 day
Mus musculus [8] = assay: Induction of Treg cell differentiation in DSS- induced ulcerative colitis mouse model assessed as increase in IL-10 mRNA level at 28 to 56 mg/kg, po administered for 10 consecutive days by Q-PCR analysis; type: functional, organism-based; conditions: dose 28-56 mg/kg, time 10.0 day
Mus musculus [9] = assay: Antiinflammatory activity in DSS-induced ulcerative colitis mouse model assessed as rescue of colon length shortening at 28 to 56 mg/kg, po administered for 10 consecutive days; type: functional, organism-based; conditions: dose 28-56 mg/kg, time 10.0 day
T-cell [10] = assay: Induction of cell differentiation in anti-CD3/CD28 stimulated naive T-cells assessed as upregulation of Foxp3 mRNA expression at 0.3 to 3 uM measured after 72 hrs by Q-PCR analysis; type: functional, cell-based; conditions: dose 0.3-3 µM
T-cell [11] = assay: Induction of cell differentiation in anti-CD3/CD28 stimulated naive T-cells assessed as upregulation of IL-10 mRNA expression at 0.3 to 3 uM measured after 72 hrs by Q-PCR analysis; type: functional, cell-based; conditions: dose 0.3-3 µM
T-cell [12] = assay: Induction of cell differentiation in anti-CD3/CD28 stimulated naive T-cells assessed as number of Treg cells at 0.3 uM measured after 72 hrs by flow cytometry analysis (reference value: 24 %); type: functional
Mus musculus [13] = assay: Antiinflammatory activity in DSS-induced ulcerative colitis mouse model assessed as protection against colon destruction at 28 to 56 mg/kg, po administered for 10 consecutive days by HE staining based histopathological analysis; type: functional, organism-based; conditions: dose 28-56 mg/kg, time 10.0 day
Mus musculus [14] = assay: Induction of Treg cell differentiation in DSS- induced ulcerative colitis mouse model assessed as number of Treg cells in mesenteric lymph nodes at 56 mg/kg, po administered for 10 consecutive days by flow cytometry analysis (Rvb= 7.52%); type: functional; conditions: time 10 day
Mus musculus [15] = assay: Induction of Treg cell differentiation in DSS- induced ulcerative colitis mouse model assessed as number of Treg cells in mesenteric lymph nodes at 28 mg/kg, po administered for 10 consecutive days by flow cytometry analysis (Rvb= 7.52%); type: functional; conditions: time 10 day
Mus musculus [16] = assay: Induction of Treg cell differentiation in DSS- induced ulcerative colitis mouse model assessed as increase in Foxp3 mRNA level at 28 to 56 mg/kg, po administered for 10 consecutive days by Q-PCR analysis; type: functional, organism-based; conditions: dose 28-56 mg/kg, time 10.0 day
Mus musculus [17] = assay: Induction of Treg cell differentiation in DSS- induced ulcerative colitis mouse model assessed as number of Treg cells in spleens at 56 mg/kg, po administered for 10 consecutive days by flow cytometry analysis (Rvb= 6.49%); type: functional; conditions: time 10 day
Mus musculus [18] = assay: Antiinflammatory activity in DSS-induced ulcerative colitis mouse model assessed as protection against inflammation of colons at 28 to 56 mg/kg, po administered for 10 consecutive days by HE staining based histopathological analysis; type: functional, organism-based; conditions: dose 28-56 mg/kg, time 10.0 day
Mus musculus [19] = assay: Induction of Treg cell differentiation in DSS- induced ulcerative colitis mouse model assessed as number of Treg cells in colonic lamina proprias at 56 mg/kg, po administered for 10 consecutive days by flow cytometry analysis (Rvb= 7.97%); type: functional; conditions: time 10 day
Mus musculus [20] = assay: Induction of Treg cell differentiation in DSS- induced ulcerative colitis mouse model assessed as number of Treg cells in colonic lamina proprias at 28 mg/kg, po administered for 10 consecutive days by flow cytometry analysis (Rvb= 7.97%); type: functional; conditions: time 10 day
T-cell [21] = assay: Induction of cell differentiation in anti-CD3/CD28 stimulated naive T-cells assessed as number of Treg cells at 1 uM measured after 72 hrs by flow cytometry analysis (reference value: 24 %); type: functional
Mus musculus [22] = assay: Antiinflammatory activity in DSS-induced ulcerative colitis mouse model assessed as reduction in DAI score at 28 to 56 mg/kg, po administered for 10 consecutive days; type: functional, organism-based; conditions: dose 28-56 mg/kg, time 10.0 day
Mus musculus [23] = assay: Induction of Treg cell differentiation in DSS- induced ulcerative colitis mouse model assessed as number of Treg cells in spleens at 28 mg/kg, po administered for 10 consecutive days by flow cytometry analysis (Rvb= 6.49%); type: functional; conditions: time 10 day
T-cell [24] = assay: Induction of cell differentiation in anti-CD3/CD28 stimulated naive T-cells assessed as number of Treg cells at 3 uM measured after 72 hrs by flow cytometry analysis (reference value: 24 %); type: functional

For `COc1cc(CN2CCc3cc(OC)c(O)c4c3C2Cc2cc(O)c(OC)cc2-4)cc(OC)c1` (configuration not stated), the Activity (EL4) was “Non-Toxic”.
For `COc1cc2c(cc1O)CC1c3c(cc(OC)c(O)c3-2)CCN1Cc1cc(C)cc(C)c1` (configuration not stated), the Activity (EL4) was “Non-Toxic”.
`COc1cc2c(cc1O)CC1c3c(cc(OC)c(O)c3-2)CCN1Cc1ccc([N+](=O)[O-])cc1` (configuration not stated) was tested, and the Activity (EL4) was “Non-Toxic”.
For `CCCC(=O)[O-].[Na+]` [SODIUM BUTYRATE], the Activity (T-cell [1]) was “Active”, the Activity (T-cell [2]) was “Active” and the Activity (T-cell [3]) was “Active”. For the same molecule, the Activity (EL4) was “Non-Toxic” and the Activity (T-cell [4]) was 32.4%.
`COc1cc2c(cc1O)CC1c3c(cc(OC)c(O)c3-2)CCN1Cc1ccccc1` (configuration not stated) was tested, and the Activity (EL4) was “Non-Toxic”.
For `COc1cc2c(cc1O)CC1c3c(cc(OC)c(O)c3-2)CCN1C(=O)c1ccccc1` (configuration not stated), the Activity (EL4) was “Non-Toxic”.
In the case of `COc1cc2c(cc1O)CC1c3c(cc(OC)c(O)c3-2)CCN1Cc1ccc(F)cc1` (configuration not stated), the Activity (EL4) is reported as “Non-Toxic”.
In the case of `COc1cc2c(cc1O)CC1c3c(cc(OC)c(O)c3-2)CCN1Cc1ccc(C#N)cc1` (configuration not stated), the Activity (EL4) is reported as “Non-Toxic”.
`COc1cc2c(cc1O)CC1c3c(cc(OC)c(O)c3-2)CCN1Cc1ccc(Cl)cc1` (configuration not stated) was tested, and the Activity (T-cell [5]) was “Active”, the Activity (EL4) was “Non-Toxic” and the Activity (T-cell [6]) was “inactive”.
In the case of `COc1cc2c(cc1O)CC1c3c(cc(OC)c(O)c3-2)CCN1C(=O)c1cc(C)cc(C)c1` (configuration not stated), the Activity (Mus musculus [7]) is reported as “Active”, the Activity (Mus musculus [8]) is reported as “Active” and the Activity (Mus musculus [9]) is reported as “Active”. The Activity (T-cell [5]) was “Active”, the Activity (T-cell [10]) was “Active” and the Activity (T-cell [11]) was “Active”. The Activity (T-cell [12]) was 25.2%, the Activity (Mus musculus [13]) was “Active” and the Activity (Mus musculus [14]) was 12.32%. For the same molecule, the Activity (Mus musculus [15]) was 11.55%, the Activity (Mus musculus [16]) was “Active” and the Activity (EL4) was “Non-Toxic”. The Activity (Mus musculus [17]) was 7.87%, the Activity (T-cell [6]) was “inactive” and the Activity (Mus musculus [18]) was “Active”. It also gave an Activity (Mus musculus [19]) of 14.5%, an Activity (Mus musculus [20]) of 13.57% and an Activity (T-cell [21]) of 31.1%. The Activity (Mus musculus [22]) was “Active”, the Activity (Mus musculus [23]) was 7.03% and the Activity (T-cell [24]) was 36%.
In the case of `COc1ccc(C(=O)N2CCc3cc(OC)c(O)c4c3C2Cc2cc(O)c(OC)cc2-4)cc1` (configuration not stated), the Activity (EL4) is reported as “Non-Toxic”.
